Laboratory results from US20220306695A1, “COMPSTATIN ANALOGUES AND THEIR MEDICAL USES” (priority 2019, published 2022).
Where two headings read alike, the source gives them in different places. Starred links: 1 amine or outer side, 2 acyl side, 3 side chain; linkers in the order of their positions; H or OH if unused. Positions of bridges follow the written chain, without caps; N, C: chain ends. Non-standard residues stand in square brackets, D forms with d. Residues, ends and D or L forms follow the SMILES beside them. Groups on a side chain read outwards from the residue. *: point of attachment. Trp(1-Me) = Cn1cc(C[C@H](N)C(=O)O)c2ccccc21; Abu(4-yl) = O=C([C@H](CC[*:3])N[*:1])[*:2]; C18 diacid = O=C(O)CCCCCCCCCCCCCCCCC(=O)*; γGlu = O=C(O)[C@H](CCC(=O)[*:2])N[*:1]; AEEA = NCCOCCOCC(=O)O; Sar = CNCC(=O)O

Tests used:
[1] = system: classical complement pathway; experiment: In vitro haemolysis assay (inhibition of classical complement pathway); type: cell-based, human; settings: Table 3; human serum, sensitized sheep red blood cells; read-out: IC50[nM], in vitro analysis of inhibition of hemolysis
In short: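 Serially diluted compound (9 points) was preincubated 15 min at room temperature with diluted human serum, titrated per batch to give 70-90% maximal haemolysis, in Tris/casein buffer pH 7.4 with Mg2+/Ca2+. Antibody-sensitized sheep erythrocytes were then added for 30 min at 37° C, and the reaction was stopped with EDTA. Haemolysis was read at A405, with IC50 from 4PL fit.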

in vivo = experiment: in vivo; parameters: species or system Cynomolgus monkeys (Macaca fascicularis); settings: male, cynomolgus monkey, sc, 1840 nmol/kg, t½
Procedure: Healthy male Cynomolgus monkeys (Macaca fascicularis) received single subcutaneous administrations of each test substance. Compounds were formulated in 20 mM phosphate adjusted with NaOH to pH 7.5 and mannitol for isotonicity and dosed at 1840 nmol/kg. Blood was collected from a femoral vein from each animal at the following times: Pre-dose, 1, 2, 4, 8, 24, 48, 72, 96 and 120 h (10 sampling times). Blood was collected into serum separation tubes and allowed to clot at room temperature. The tubes were centrifuged and resulting serum was aliquoted and snap-frozen over dry-ice and stored at nominally −80° C. until analysis. All NHP studies were performed in accordance with animal welfare laws and regulations, including approval of the study by a local ethical review process.
In order to assess pharmacokinetic half-life (t %/), serum samples isolated from non-human primates at specific time points after dosing were analysed for total drug compound after sample preparation by solid phase extraction (SPE) and liquid chromatography mass spectrometry (LC-MS/MS) using analogue internal standard. Single measurement of serum concentrations were used for calculation of the pharmacokinetic parameters using the non-compartmental approach in Phoenix WinNonlin 6.3. Plasma terminal elimination half-life (ty) was determined as In(2)/λz where λz is the magnitude of the slope of the log linear regression of the log concentration versus time profile during the terminal phase.

[2] = type: physicochemical; settings: 50 mg/mL peptide; for Covalent oligomer content after 14 days 40° C. (%), F1 / Purity after 14 days 40° C. (%), F1: F1: 20 mM phosphate pH 5.5; for Covalent oligomer content after 14 days 40° C. (%), F1 / Covalent oligomer content after 14 days 40° C. (%), F2: denaturing SEC; for Purity after 14 days 40° C. (%), F1 / Purity after 14 days 40° C. (%), F2 / Purity after 14 days 40° C. (%), F3: normalized purity (HPLC)
Procedure: Chemical stability of compstatin analogues with cystathionine or disulfide bridge. Stability was assessed in three formulations at 50 mg/mL peptide, F1:20 mM phosphate pH 5.5, F2:20 mM phosphate pH 6.5 and F3:20 mM phosphate pH 7.5. The formulations were prepared by direct dissolution of peptide from lyophilized portions in the respective formulations. pH was adjusted to target with 1 M NaOH and 1 M HCl. Chemical stability was assessed under accelerated conditions (14 days, 40° C.) and evaluated as change in purity by reverse phase HPLC, and change in covalent oligomer content by denaturing SEC. The formulations were placed at 40° C. with analysis points at T=0, 7 and 14 days. On each time point a small volume was extracted and diluted to 2 mg/mL and tested by reverse phase HPLC and denaturing SEC. Purity was assessed by reverse phase HPLC using an Ultimate 3000 system for binary gradient application equipped with a Kinetix C18 column (cat. no. 00F-4462-Y0, 150 mm×3 mm, 2.6 μm) run at 0.5 ml/min with a gradient of buffer A (0.3% TFA, aq.) and buffer B (0.3% TFA, 90% MeCN, aq.) gradient from 40% B to 70% B over 20 min. Detection was done using a diode array detector set to 220 nm. Covalent oligomer formation was assessed by denaturing SEC (size exclusion chromatography) using an Ultimate 3000 system equipped with a TSKgel SuperSW 2000 column (cat. no. 818674, 300 mm×3 mm, 4 μm) run at 0.5 ml/min with isocratic flow of buffer A (0.1% TFA, 45% MeCN, aq.), 10 min. Detection was done using a diode array detector set to 215 nm. Compounds 126 and 156 were carefully weighed out and dissolved in formulations F1, F2 and F3 to a target concentration of 50 mg/mL. Once visually dissolved, concentration was confirmed by absorbance at 280 nm, and samples were placed in stability at 40° C. Samples for analysis were extracted on T=0, 7 and 14 days from a 40° C. climate chamber. The extracted volume was dissolved 1:25 (final concentration: 2 mg/mL) in 20 mM phosphate pH 5.5, 6.5 or 7.5 and measured by reverse phase HPLC and denaturing SEC by injection of 0.4 μL (column load […]). The resulting chromatograms were integrated to determine chemical purity by reverse phase HPLC and covalent oligomer content by denaturing SEC.

| Compound | IC50 [1] [nM] | half-life (in vivo) [h] | Covalent oligomer content after 14 days 40° C. (%), F1 [2] [%] | Purity after 14 days 40° C. (%), F1 [2] [%] | Covalent oligomer content after 14 days 40° C. (%), F2 ([2]; F2: 20 mM phosphate pH 6.5) [%] | Purity after 14 days 40° C. (%), F2 ([2]; F2: 20 mM phosphate pH 6.5) [%] | Covalent oligomer content after 14 days 40° C. (%), F2 ([2]; F3: 20 mM phosphate pH 7.5) [%] | Purity after 14 days 40° C. (%), F3 ([2]; F3: 20 mM phosphate pH 7.5) [%] |
| --- | --- | --- | --- | --- | --- | --- | --- | --- |
| CC[C@H](C)[C@@H]1NC(=O)[C@@H](NC(=O)[C@H](Cc2ccccc2)NC(=O)[C@H](CCC(=O)O)NC(=O)[C@H](CO)NC(C)=O)CSSC[C@@H](C(=O)N(C)CC(=O)N[C@@H](CCC(=O)O)C(=O)NCC(=O)N[C@@H](C)C(=O)N[C@@H](CCCCNC(=O)COCCOCCNC(=O)CC[C@H](NC(=O)COCCOCCNC(=O)CNC(=O)CC[C@H](NC(=O)CCCCCCCCCCCCCCCCC(=O)O)C(=O)O)C(=O)O)C(N)=O)NC(=O)[C@H](CCCNC(=N)N)NC(=O)[C@H](Cc2c[nH]cn2)NC(=O)[C@H](CCC(=O)O)NC(=O)CNC(=O)[C@H](Cc2c[nH]c3ccccc23)NC(=O)[C@H](CC(=O)O)NC(=O)[C@H](CCC(N)=O)NC(=O)[C@H](Cc2cn(C)c3ccccc23)NC1=O [Compound 119] (Ac-SEFCI[Trp(1-Me)]QDWGEHRC[Sar]EGAK([AEEA-γGlu-AEEA-Gly-γGlu-C18 diacid])-NH2; disulfide 4-14) | < 100 | 139 | 80 | 23 | 66 | 31 | 48 | 46 |
| CC[C@H](C)[C@@H]1NC(=O)[C@@H](NC(=O)[C@H](Cc2ccccc2)NC(=O)[C@H](CCC(=O)O)NC(=O)[C@H](CO)NC(C)=O)CSCC[C@@H](C(=O)N(C)CC(=O)N[C@@H](CCC(=O)O)C(=O)NCC(=O)N[C@@H](CCC(=O)O)C(=O)NCCOCCOCC(=O)N[C@@H](CCC(=O)O)C(=O)N[C@@H](CO)C(=O)N[C@@H](CCCCNC(=O)CC[C@H](NC(=O)CNC(=O)CC[C@H](NC(=O)CCCCCCCCCCCCCCCCC(=O)O)C(=O)O)C(=O)O)C(N)=O)NC(=O)[C@H](CCCNC(=N)N)NC(=O)[C@H](Cc2c[nH]cn2)NC(=O)[C@H](CCC(=O)O)NC(=O)CN(C)C(=O)[C@H](Cc2c[nH]c3ccccc23)NC(=O)[C@H](CC(=O)O)NC(=O)[C@H](CCC(N)=O)NC(=O)[C@H](Cc2cn(C)c3ccccc23)NC1=O [Compound 150, Ac-SEFA(1)I[1-Me-Trp]QDW[Sar]EHRhC(1)[Sar]EGE[Peg3]ES-K([17-carboxy-heptadecanoyl][γGlu]G[γGlu])-NH2] (Ac-SEFCI[Trp(1-Me)]QDW[Sar]EHR[Abu(4-yl)][Sar]EGE[AEEA]ESK([γGlu-Gly-γGlu-C18 diacid])-NH2; thioether 4-14) | < 100 | 120 | 0.7 | 98 | 0.1 | 100 | 0.1 | 100 |
| CC[C@H](C)[C@@H]1NC(=O)[C@@H](NC(=O)[C@H](Cc2ccccc2)NC(=O)[C@H](CCC(=O)O)NC(=O)[C@H](CO)NC(C)=O)CSCC[C@@H](C(=O)N(C)CC(=O)N[C@@H](CCC(=O)O)C(=O)NCCOCCOCC(=O)NCCOCCOCC(=O)N[C@@H](CCCCNC(=O)CC[C@H](NC(=O)CNC(=O)CC[C@H](NC(=O)CCCCCCCCCCCCCCCCC(=O)O)C(=O)O)C(=O)O)C(N)=O)NC(=O)[C@H](CCCNC(=N)N)NC(=O)[C@H](Cc2c[nH]cn2)NC(=O)[C@H](CCC(=O)O)NC(=O)CN(C)C(=O)[C@H](Cc2c[nH]c3ccccc23)NC(=O)[C@H](CC(=O)O)NC(=O)[C@H](CCC(N)=O)NC(=O)[C@H](Cc2cn(C)c3ccccc23)NC1=O [Compound 147, Ac-SEFA(1)I[1-Me-Trp]QDW[Sar]EHRhC(1)[Sar]E[Peg3][Peg3]-K([17-carboxy-heptadecanoyl][γGlu]G[γGlu])-NH2] (Ac-SEFCI[Trp(1-Me)]QDW[Sar]EHR[Abu(4-yl)][Sar]E[AEEA][AEEA]K([γGlu-Gly-γGlu-C18 diacid])-NH2; thioether 4-14) | < 100 | 108 | 0.6 | 98 | 0.1 | 99 | 0.2 | 99 |
| CC[C@H](C)[C@@H]1NC(=O)[C@@H](NC(=O)[C@H](Cc2ccccc2)NC(=O)[C@H](CCC(=O)O)NC(=O)[C@H](CO)NC(C)=O)CSSC[C@@H](C(=O)N[C@H](C(=O)N[C@@H](CCC(=O)O)C(=O)NCC(=O)N[C@@H](CCC(=O)O)C(=O)NCCOCCOCC(=O)N[C@@H](CCC(=O)O)C(=O)N[C@@H](CO)C(=O)N[C@@H](CCCCNC(=O)CC[C@H](NC(=O)CCCCCCCCCCCCCCCCC(=O)O)C(=O)O)C(N)=O)[C@@H](C)O)NC(=O)[C@H](CCCNC(=N)N)NC(=O)[C@H](Cc2c[nH]cn2)NC(=O)[C@H](CCC(=O)O)NC(=O)CNC(=O)[C@H](Cc2c[nH]c3ccccc23)NC(=O)[C@H](CC(=O)O)NC(=O)[C@H](CCC(N)=O)NC(=O)[C@H](Cc2cn(C)c3ccccc23)NC1=O [Compound 142] (Ac-SEFCI[Trp(1-Me)]QDWGEHRCTEGE[AEEA]ESK([γGlu-C18 diacid])-NH2; disulfide 4-14) | < 100 | 143 | 63 | 50 | 64 | 37 | 56 | 45 |
